Reference: patent US9115137B2, “2,3,4,5-tetrahydro-1H-pyrido[4,3-B]indole compounds and methods of use thereof” (priority 2008, dated 2015)

Columns and labels:
[1] = target: T1, human recombinant histamine H1 receptor (Homo sapiens, UniProt P35367); assay: Histamine H1 radioligand binding ([3H]Pyrilamine); conditions: compound at 1 μM; CHO cells; read-out: Histamine Binding (1 μM) H1, percent inhibition of specific binding
T1 construct: expressed in transfected cells; host or cells: CHO cells
Procedure: To evaluate in radioligand binding assays the activity of compounds of the invention, human recombinant histamine H1 receptor expressed in Chinese hamster ovary (CHO) cells (De Backer, M. D. et al., Biochem. Biophys. Res. Comm. 197(3):1601, 1993) in a modified Tris-HCl buffer (50 mM Tris-HCl, pH 7.4, 2 mM MgCl2, 100 mM NaCl, 250 mM Sucrose) was used. Compounds of the invention were incubated with 1.2 nM [^3H]Pyrilamine for 180 minutes at 25° C. Non-specific binding was estimated in the presence of 1 μM pyrilamine. Receptor proteins were filtered and washed, the filters were then counted to determine [^3H]Pyrilamine specifically bound. Compounds were screened at 1 μM, using 1% DMSO as vehicle. Biochemical assay results are presented as the percent inhibition of specific binding in Table 5.

[2] = target: T2, human recombinant histamine H2 receptor (Homo sapiens, UniProt P25021); assay: Histamine H2 radioligand binding ([125I]aminopotentidine); conditions: compound at 1 μM; CHO K1 cells; read-out: Histamine Binding (1 μM) H2, percent inhibition of specific binding
T2 construct: expressed in transfected cells; host or cells: CHO-K1 cells
Procedure: To evaluate in radioligand binding assays the activity of compounds of the invention, human recombinant histamine H2 receptor expressed in Chinese hamster ovary (CHO) K1 cells (Ruat, M., Proc. Natl. Acad. Sci. USA. 87(5):1658, 1990) in a 50 mM Phosphate buffer, pH 7.4 was used. Compounds of the invention were incubated with 0.1 nM [^125I]aminopotentidine for 120 minutes at 25° C. Non-specific binding was estimated in the presence of 3 μM Tiotidine. Receptor proteins were filtered and washed, the filters were then counted to determine [^125I]Aminopotentidine specifically bound. Compounds were screened at 1 μM, using 1% DMSO as vehicle. Biochemical assay results are presented as the percent inhibition of specific binding in Table 5.

[3] = target: T3, human recombinant adrenergic α1D receptor (Homo sapiens, UniProt P25100); assay: Adrenergic α1D radioligand binding ([3H]Prozosin); conditions: compound at 1 μM; HEK-293 cells; read-out: Adrenergic (1 μM) α1D, percent inhibition of specific binding
T3 construct: expressed in transfected cells; host or cells: HEK-293 cells
T3 sequence (P25100 1-572): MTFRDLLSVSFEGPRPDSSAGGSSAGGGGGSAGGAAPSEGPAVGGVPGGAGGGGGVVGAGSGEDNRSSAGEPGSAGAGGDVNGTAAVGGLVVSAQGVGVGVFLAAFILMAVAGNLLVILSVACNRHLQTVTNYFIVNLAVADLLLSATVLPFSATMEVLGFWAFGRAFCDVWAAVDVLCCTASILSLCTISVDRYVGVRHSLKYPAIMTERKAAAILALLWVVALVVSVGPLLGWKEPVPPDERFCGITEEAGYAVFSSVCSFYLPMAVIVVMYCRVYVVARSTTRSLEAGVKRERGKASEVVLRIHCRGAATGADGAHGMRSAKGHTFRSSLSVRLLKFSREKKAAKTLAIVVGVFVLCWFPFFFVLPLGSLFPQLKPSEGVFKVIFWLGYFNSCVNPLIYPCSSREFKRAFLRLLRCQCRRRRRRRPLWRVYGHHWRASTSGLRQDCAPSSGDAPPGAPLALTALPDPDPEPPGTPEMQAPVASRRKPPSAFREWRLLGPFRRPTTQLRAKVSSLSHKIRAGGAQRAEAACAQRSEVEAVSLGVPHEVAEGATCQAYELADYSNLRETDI
Procedure: To evaluate in radioligand binding assays the activity of compounds of the invention, human recombinant adrenergic α1D receptor expressed in human embryonic kidney (HEK-293) cells (Kenny, B. A. et al. Br. J. Pharmacol. 115(6):981, 1995) in a 50 mM Tris-HCl buffer, pH 7.4, was used. Compounds of invention were incubated with 0.6 nM [^3H]Prozosin for 60 minutes at 25° C. Non-specific binding was estimated in the presence of 10 μM phentolamine. Receptor proteins were filtered and washed, the filters were then counted to determine [^3H]Prozosin specifically bound. Compounds were screened at 1 μM or lower, using 1% DMSO as vehicle. Biochemical assay results are presented as the percent inhibition of specific binding in Table 6.

[4] = target: T4, human recombinant serotonin (5-Hydroxytryptamine) 5-HT6 receptor (Homo sapiens, UniProt P50406); assay: Serotonin 5-HT6 radioligand binding ([3H]LSD); conditions: compound at 1 μM; HeLa cells; read-out: Serotonin (1 μM) 5-HT6, percent inhibition of specific binding
T4 construct: expressed in transfected cells; host or cells: human HeLa cells
Procedure: To evaluate in radioligand binding assays the activity of compounds of the invention, human recombinant serotonin (5-Hydroxytryptamine) 5-HT6 receptor expressed in human HeLa cells (Monsma, F. J. Jr. et al., Mol. Pharmacol. 43:320, 1993) in a modified Tris-HCl buffer (50 mM Tris-HCl, pH 7.4, 150 mM NaCl, 2 mM Ascorbic Acid, 0.001% BSA) was used. Compounds of the invention were incubated with 1.5 nM [3H]Lysergic acid diethylamide (LSD) for 120 minutes at 37° C. Non-specific binding was estimated in the presence of 5 μM Serotonin (5-HT). Receptor proteins were filtered and washed, the filters were then counted to determine [3H]LSD specifically bound. Compounds were screened at 1 μM or lower, using 1% DMSO as vehicle. Biochemical assay results are presented as the percent inhibition of specific binding in Table 7.

[5] = target: T5, human recombinant dopamine D2L receptor (Homo sapiens, UniProt P14416); assay: Dopamine D2L radioligand binding ([3H]Spiperone); conditions: compound at 1 μM; CHO cells; read-out: Dopamine (1 μM) D2L, percent inhibition of specific binding
T5 construct: expressed in transfected cells; host or cells: CHO cells
Procedure: To evaluate in radioligand binding assays the activity of compounds of the invention, human recombinant dopamine D2L receptor expressed in Chinese hamster ovary (CHO) cells (Grandy, D. K. et al. Proc. Natl. Acad. Sci. USA. 86:9762, 1989; Hayes, G. et al., Mol. Endocrinol. 6:920, 1992) in a modified Tris-HCl buffer (50 mM Tris-HCl, pH 7.4, 1.4 mM Ascorbic Acid, 0.001% BSA, 150 mM NaCl) was used. Compounds of the invention were incubated with 0.16 nM [^3H]Spiperone for 120 minutes at 25° C. Non-specific binding was estimated in the presence of 10 μM Haloperidol. Receptor proteins were filtered and washed, the filters were then counted to determine [^3H]Spiperone specifically bound. Compounds were screened at 1 μM or lower, using 1% DMSO as vehicle. Biochemical assay results are presented as the percent inhibition of specific binding in Table 6.

T5 sequence (P14416 whole entry): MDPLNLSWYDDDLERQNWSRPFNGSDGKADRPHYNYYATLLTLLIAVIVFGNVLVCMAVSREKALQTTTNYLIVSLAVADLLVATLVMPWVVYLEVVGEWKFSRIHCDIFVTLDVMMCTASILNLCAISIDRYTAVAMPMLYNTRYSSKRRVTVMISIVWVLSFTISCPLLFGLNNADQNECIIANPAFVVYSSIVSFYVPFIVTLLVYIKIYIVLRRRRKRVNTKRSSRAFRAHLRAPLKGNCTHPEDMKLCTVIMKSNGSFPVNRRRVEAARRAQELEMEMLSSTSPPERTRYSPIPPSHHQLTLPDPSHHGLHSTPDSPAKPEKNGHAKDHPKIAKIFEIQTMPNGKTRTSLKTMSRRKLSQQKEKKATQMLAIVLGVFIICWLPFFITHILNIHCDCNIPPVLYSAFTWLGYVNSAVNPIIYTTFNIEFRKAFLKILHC
T2 sequence (P25021 whole entry): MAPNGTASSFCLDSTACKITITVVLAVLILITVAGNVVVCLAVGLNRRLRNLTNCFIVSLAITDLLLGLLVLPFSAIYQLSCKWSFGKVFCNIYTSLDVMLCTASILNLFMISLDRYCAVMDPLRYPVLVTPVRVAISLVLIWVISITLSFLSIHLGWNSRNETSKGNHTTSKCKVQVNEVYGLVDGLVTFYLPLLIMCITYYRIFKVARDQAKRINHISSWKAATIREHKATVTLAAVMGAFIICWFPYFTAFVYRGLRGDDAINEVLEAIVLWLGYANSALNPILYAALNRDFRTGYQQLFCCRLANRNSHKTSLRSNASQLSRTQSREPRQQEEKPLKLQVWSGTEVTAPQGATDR
T4 sequence (P50406 whole entry): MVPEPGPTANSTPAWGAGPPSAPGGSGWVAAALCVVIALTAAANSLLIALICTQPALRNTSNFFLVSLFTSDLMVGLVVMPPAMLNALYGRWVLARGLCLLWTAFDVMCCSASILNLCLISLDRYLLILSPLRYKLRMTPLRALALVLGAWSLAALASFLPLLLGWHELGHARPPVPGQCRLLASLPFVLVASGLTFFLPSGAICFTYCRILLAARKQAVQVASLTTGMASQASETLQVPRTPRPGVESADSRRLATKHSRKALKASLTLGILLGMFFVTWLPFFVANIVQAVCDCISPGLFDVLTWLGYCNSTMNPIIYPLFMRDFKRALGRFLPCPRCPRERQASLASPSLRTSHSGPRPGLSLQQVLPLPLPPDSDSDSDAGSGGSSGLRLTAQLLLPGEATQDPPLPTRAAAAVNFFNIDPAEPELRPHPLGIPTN
T1 sequence (P35367 whole entry): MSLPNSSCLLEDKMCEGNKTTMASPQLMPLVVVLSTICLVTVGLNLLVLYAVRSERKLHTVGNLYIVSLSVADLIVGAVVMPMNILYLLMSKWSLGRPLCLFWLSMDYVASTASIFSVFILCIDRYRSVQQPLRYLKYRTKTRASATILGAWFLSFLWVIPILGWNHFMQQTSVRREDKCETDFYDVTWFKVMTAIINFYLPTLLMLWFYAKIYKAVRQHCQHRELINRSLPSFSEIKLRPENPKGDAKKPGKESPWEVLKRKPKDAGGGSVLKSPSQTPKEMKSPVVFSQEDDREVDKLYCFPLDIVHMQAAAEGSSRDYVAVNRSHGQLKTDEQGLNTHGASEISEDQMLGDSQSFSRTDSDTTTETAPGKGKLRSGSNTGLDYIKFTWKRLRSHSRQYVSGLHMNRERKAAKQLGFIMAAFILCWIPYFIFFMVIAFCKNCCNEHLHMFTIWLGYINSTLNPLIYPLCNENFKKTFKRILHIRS

Row | Structure (SMILES) | inhibition at 1 µM [1] [%] | inhibition at 1 µM [2] [%] | inhibition at 1 µM [3] [%] | inhibition at 1 µM [4] [%] | inhibition at 1 µM [5] [%]
1 | CCOC(=O)CCn1c2c(c3cc(C)ccc31)CN(C)CC2 [CD1, ethyl 3-(1,2,3,4-tetrahydro-2,8-dimethylpyrido[4,3-b]indol-5-yl)propanoate] | 101 | 35 | 54 | 78 | 
2 | CCOC(=O)CCn1c2c(c3cc(Cl)ccc31)CN(C)CC2 [CD17, ethyl 3-(8-chloro-1,2,3,4-tetrahydro-2-methylpyrido[4,3-b]indol-5-yl)propanoate] | 100 | 46 | 70 | 101 | 22
3 | CN1CCc2c(c3cc(Cl)ccc3n2CC(=O)O)C1 [CD46, 2-(8-chloro-1,2,3,4-tetrahydro-2-methylpyrido[4,3-b]indol-5-yl)acetic acid] | 69 | -3 | 10 | 39 | 3
4 | Cc1ccc2c(c1)c1c(n2CCC(=O)O)CCN(C)C1 [CD47, 3-(1,2,3,4-tetrahydro-2,8-dimethylpyrido[4,3-b]indol-5-yl)propanoic acid] | 25 | 16 | 6 | 11 | 4
5 | CN1CCc2c(c3cc(Cl)ccc3n2CCC(=O)O)C1 [CD55, 3-(8-chloro-1,2,3,4-tetrahydro-2-methylpyrido[4,3-b]indol-5-yl)propanoic acid] | 22 | -2 | 14 | -3 | 3
6 | CCOC(=O)Cn1c2c(c3cc(C)ccc31)CN(C)CC2 [CD57, ethyl 2-(1,2,3,4-tetrahydro-2,8-dimethylpyrido[4,3-b]indol-5-yl)acetate] | 100 | 28 | 39 | 67 | 12
7 | Cc1ccc2c(c1)c1c(n2CC(=O)O)CCN(C)C1 [CD58, 2-(1,2,3,4-tetrahydro-2,8-dimethylpyrido[4,3-b]indol-5-yl)acetic acid] | 5 | 5 | 0 | -5 | 2
8 | Cc1ccc2c(c1)c1c(n2CC#N)CCN(C)C1 [CD61, 2-(1,2,3,4-tetrahydro-2,8-dimethylpyrido[4,3-b]indol-5-yl)acetonitrile] | 98 | 15 | 74 | 68 | 
9 | C#CCn1c2c(c3cc(C)ccc31)CN(C)CC2 [CD73, 2,8-dimethyl-5-(prop-2-ynyl)-2,3,4,5-tetrahydro-1H-pyrido[4,3-b]indole] | 96 | 19 | 57 | 83 | 
10 | CNC(=O)CCn1c2c(c3cc(C)ccc31)CN(C)CC2 [Compound 1, 3-(1,2,3,4-tetrahydro-2,8-dimethylpyrido[4,3-b]indol-5-yl)-N-methylpropanamide] | 34 | 8 | 20 | 8 | 
11 | CCNC(=O)CCn1c2c(c3cc(C)ccc31)CN(C)CC2 [Compound 2, N-ethyl-3-(1,2,3,4-tetrahydro-2,8-dimethylpyrido[4,3-b]indol-5-yl)propanamide] | 52 | 5 | 17 | 19 | 
12 | Cc1ccc2c(c1)c1c(n2CCC(=O)NC2CCCCC2)CCN(C)C1 [Compound 3, N-cyclohexyl-3-(1,2,3,4-tetrahydro-2,8-dimethylpyrido[4,3-b]indol-5-yl)propanamide] | 2 | 23 | 45 | 19 | 
13 | Cc1ccc2c(c1)c1c(n2CCC(=O)NC2CCCC2)CCN(C)C1 [Compound 4, N-cyclopentyl-3-(1,2,3,4-tetrahydro-2,8-dimethylpyrido[4,3-b]indol-5-yl)propanamide] | 60 | 20 | 64 | 28 | 
14 | CCOC(=O)CCCn1c2c(c3cc(C)ccc31)CN(C)CC2 [Compound 5, ethyl 4-(1,2,3,4-tetrahydro-2,8-dimethylpyrido[4,3-b]indol-5-yl)butanoate] | 96 | 48 | 70 | 88 | 
15 | CCNC(=O)CCCn1c2c(c3cc(C)ccc31)CN(C)CC2 [Compound 6, N-ethyl-4-(1,2,3,4-tetrahydro-2,8-dimethylpyrido[4,3-b]indol-5-yl)butanamide] | 46 | 0 | 0 | 23 | 
16 | Cc1ccc2c(c1)c1c(n2CCNC(=O)OCC(Cl)(Cl)Cl)CCN(C)C1 [Compound 8, 2,2,2-trichloroethyl 2-(1,2,3,4-tetrahydro-2,8-dimethylpyrido[4,3-b]indol-5-yl)ethylcarbamate] | 101 | 74 | 72 | 83 | 
17 | Cc1ccc2c(c1)c1c(n2CCNC(=O)C2CCCNC2)CCN(C)C1 (centres unmarked) [Compound 9, N-(2-(1,2,3,4-tetrahydro-2,8-dimethylpyrido[4,3-b]indol-5-yl)ethyl)piperidine-3-carboxamide] |  | -44 | 11 | -5 | 2
